Reference: PMC3722296 (PLoS ONE, 2013)
≈ marks a conversion by molar mass, not a printed value.

Assays:
S. aureus ATCC25923 = assay type: cell-based, Staphylococcus aureus; details: MIC = 100% growth inhibition; MHB pH 7.3, 5×10^5 CFU/mL, 24 h 37°C, A620 nm; mean of triplicate (n = 3)
Protocol: (§1) Different S. aureus strains described above were first pre-cultured aerobically at 37°C for 20 h in a Mueller-Hinton-Broth (MHB) medium, pH 7.3 (Difco Laboratories, Detroit, MI). Bacteria were suspended at absorbance of 0.001 at 620 nm in the MHB medium. […] Ten µl final volumes (10–200 µg/mL) of synthetic peptides (LL-37, bCAT, hCAT and bCTL) were incubated in microtitration plates with 90 µl of a mid-logarithmic phase culture of bacteria, with a starting absorbance of 0.001 at 620 nm. In the initial inoculi, bacteria were quantified by the agar plate spreading method which was 5×10^5 colony forming units (CFU)/mL. Tetracycline (10 mg/L) and Cefotaxime (0.1 mg/L) were used as positive controls. Microbial growth was assessed by the increase of absorbance after 24 h incubation at 37°C., [29] The A620 nm value of control cultures growing in the absence of peptide and antibiotics was defined as 100% growth. A620 nm zero with the antibiotics (Tetracycline and Cefotaxime) was taken as 100% inhibition. Absence of bacterial growth was verified by agar plate spreading. Each assay was performed in triplicates.
(§2) The MIC values (µg/mL) are reported as means of three independent experiments. To determine significance, between different peptides (rows) and bacterial strains (columns), one way ANOVA was used. Overall significance and correlation was evaluated by 4×4 factorial ANOVA for independent samples. Significance was accepted at p≤0.05.

S. aureus ATCC49775 = assay type: cell-based, Staphylococcus aureus; details: MIC = 100% growth inhibition; MHB pH 7.3, 5×10^5 CFU/mL, 24 h 37°C, A620 nm; mean of triplicate (n = 3)
Protocol: as §1, §2

S. aureus S1 (MRSA) = assay type: cell-based, Staphylococcus aureus; details: MIC = 100% growth inhibition; MHB pH 7.3, 5×10^5 CFU/mL, 24 h 37°C, A620 nm; mean of triplicate (n = 3)
Protocol: (§3) S1 was isolated from the blood of a patient and S2 was isolated from the sputum of a neonate. After isolation and identification, S. aureus strains were assessed for their susceptibility to various antibiotics, using the agar disc diffusion method. S1 was found Methicillin resistant (MRSA) and is also resistant to Amoxicillin, Oxacillin, Amikacin, Tobramycin, Fluoroquinolones, Erythromycin and Clindamycin. However, it was susceptible to Gentamicin, Synercid, Co-trimoxazole, Rifampicin, Fusidic acid, Vancomycin, Teicoplanin and Linezolid.
as §1, §2

S. aureus S2 (MSSA) = assay type: cell-based, Staphylococcus aureus; details: MIC = 100% growth inhibition; MHB pH 7.3, 5×10^5 CFU/mL, 24 h 37°C, A620 nm; mean of triplicate (n = 3)
Protocol: as §3, §1, §2

[1] = tested on: S. aureus metallo-protease aureolysin; details: cited from earlier work
From the text: Staphylococcus aureus is the most frequently isolated pathogen in Gram-positive sepsis, often involved in blood clotting disorders and destruction of endocardial tissue. S. aureus has developed several mechanisms to avoid immune response including resistance to AMPs, [13] impairment of phagocyte recruitment, [14] escape from neutrophil extracellular traps, [15] interference with complement, [16] neutrophil lysis, resistance to oxidative burst and non-specific binding and degradation of immunoglobulins. The AMPs evasion mechanisms deployed by S. aureus include prote ...

## CC[C@H](C)[C@H](NC(=O)[C@H](CCCCN)NC(=O)[C@H](CCC(=O)O)NC(=O)[C@H](CCCCN)NC(=O)[C@H](CO)NC(=O)[C@H](CCCCN)NC(=O)[C@H](CCCNC(=N)N)NC(=O)[C@H](Cc1ccccc1)NC(=O)[C@H](Cc1ccccc1)NC(=O)[C@H](CC(=O)O)NC(=O)CNC(=O)[C@H](CC(C)C)NC(=O)[C@@H](N)CC(C)C)C(=O)NCC(=O)N[C@@H](CCCCN)C(=O)N[C@@H](CCC(=O)O)C(=O)N[C@@H](Cc1ccccc1)C(=O)N[C@@H](CCCCN)C(=O)N[C@@H](CCCNC(=N)N)C(=O)N[C@H](C(=O)N[C@H](C(=O)N[C@@H](CCC(N)=O)C(=O)N[C@@H](CCCNC(=N)N)C(=O)N[C@H](C(=O)N[C@@H](CCCCN)C(=O)N[C@@H](CC(=O)O)C(=O)N[C@@H](Cc1ccccc1)C(=O)N[C@@H](CC(C)C)C(=O)N[C@@H](CCCNC(=N)N)C(=O)N[C@@H](CC(N)=O)C(=O)N[C@@H](CC(C)C)C(=O)N[C@H](C(=O)N1CCC[C@H]1C(=O)N[C@@H](CCCNC(=N)N)C(=O)N[C@H](C(=O)N[C@@H](CCC(=O)O)C(=O)N[C@@H](CO)C(=O)O)[C@@H](C)O)C(C)C)[C@@H](C)CC)C(C)C)[C@@H](C)CC [LL-37, reference compound]
S. aureus ATCC25923
  MIC: 30 µg/mL (≈ 6.68 µM)
S. aureus ATCC49775
  MIC: 30 µg/mL (≈ 6.68 µM)
S. aureus S1 (MRSA)
  MIC: 30 µg/mL (≈ 6.68 µM)
S. aureus S2 (MSSA)
  MIC: 35 µg/mL (≈ 7.79 µM)
[1]
  cleavage by aureolysin: cleave and inactivate
